Marks after values point to notes of the source that are not given here. Values belong to the compound of their own block, whether it stands above or below them.
Assays:
[1] = Water uptake and hydrate stability at relative humidity; type: physicochemical; settings: room temperature; for water absorbed: 80-100% relative humidity, about 24 h, forms dihydrate; for stability of dihydrate: 5-100% relative humidity
Protocol: To a slurry of 5-chloro-6-{2,6-difluoro-4-[3-(methylamino)propoxy]phenyl}-N-[(1S)-2,2,2-trifluoro-1-methylethyl][1,2,4]triazolo[1,5-a]pyrimidin-7-amine hydrochloride (7.50 g, 15.0 mmol) and water (100 mL) is added sodium hydroxide solution (10 N, 2.0 mL, 20 mmol) dropwise. Then, fumaric acid (3.48 g, 30 mmol) is added. The mixture is stirred for about 15-20 min and then heated to about 65-75° C. and stirred until all of the solid dissolves. The solution is filtered and the filtrate is cooled to about 0-5° C. over about 1 h. The mixture is stirred for 1 h and then filtered and the collected solid washed with cold water and isopropanol. The solid is dried under vacuum at about 60° C./10 mmHg for about 20 h to give a white solid (6.54 g, 75%) in anhydrous form. A portion of the compound is placed in a drying dish at 80-100% relative humidity (RH) and room temperature for about 24 h.
A mixture of 5-chloro-6-{2,6-difluoro-4-[3-(methylamino)propoxy]phenyl}-N-[(1S)-2,2,2-trifluoro-1-methylethyl][1,2,4]triazolo[1,5-a]pyrimidin-7-amine (9.00 g, 19.4 mmol) and succinic acid (2.75 g, 23.3 mmol) in water (90 mL) is stirred for about 15-20 min and then heated to about 65-75° C. The solution is filtered and the filtrate is cooled to about 0-5° C. over about 1 h. The mixture is stirred for about 1 h and then filtered and the collected solid washed with cold water (2×9 mL) and cold isopropanol (9 mL). The solid is dried under vacuum at about 40° C./10 mmHg for about 20 h to give a white solid in anhydrous form (6.6 g, 73%). A portion of the compound is placed in a drying dish at 80-100% relative humidity (RH) and room temperature for about 24 h.

[2] = test system: COLO 205 cells; assay: MTS cytotoxicity test with COLO 205 cells; type: cell-based, human; settings: 3 days
Outline: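 COLO 205 human colon carcinoma cells, 1000 per well, exposed 3 days at 37° C to nine 2-fold dilutions, typical final top concentration 5 μM. MTS absorbance normalized to time-0 plate; IC50 is concentration giving colour yield midway between untreated and fully killed controls.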

[3] = test system: H157 Human Non-Small Cell Lung Carcinoma; assay: Human tumor xenograft test, H157; type: in vivo, athymic mice; settings: for T/C on day 0 / T/C on day 2 / T/C on day 5 / T/C on day 8 / T/C on day 12 / T/C on day 15: days 0, 7
Protocol: The ability of compounds of this invention to inhibit tumor growth in animals is studied in the athymic mouse xenograft standard pharmacological test. Female nu/nu mice in an outbred albino background are obtained from Charles River Laboratories (Wilmington, Mass.). Animals are injected subcutaneously on the flank with the desired tumor cell suspension. Several days later, mice with tumors of approximately 150 mm^3 are selected from those injected (staged) and randomly distributed into groups of 5-10. The day of staging is called day 0. Compounds of the invention, usually formulated in saline (exceptions are noted in tables), are administered to animals by intravenous injection or oral gavage on various schedules starting on day 0 or 1, as noted in the tables. The control group in each experiment is dosed with vehicle on the same schedule. Tumor size is measured every 3-7 days with calipers in two orthogonal dimensions, and tumor volume is calculated from the formula volume=[(length×width^2)/2].
Tumor/Control (T/C) is obtained by dividing the mean tumor volume of the treated group by the mean tumor volume of the control group on each measurement day. A treatment dose is defined as active if it produced a statistically significant T/C of 0.50 or less. A p value≦0.05, determined by one-side Student's t-test, is required for statistical significance. A treatment dose is defined as toxic if more than 10% of the animals died from a compound-related toxicity.

[4] = test system: pure tubulin; assay: Tubulin polymerization test with pure tubulin without GTP; type: biochemical, bovine; settings: no GTP
Protocol: (§1) Medium is RPMI-1640 with L-glutamine, supplemented with 10% heat-inactivated fetal calf serum, 100 units/ml penicillin, and 100 μg/ml streptomycin (Gibco, Grand Island, N.Y.). Microtubule-associated protein (MAP)-rich tubulin, containing about 70% tubulin and 30% MAPs (#ML113), and highly purified tubulin (>99% pure, #TL238), both from bovine brain, are obtained from Cytoskeleton, Inc., Denver, Colo. PEM buffer (80 mM piperazine-N,N′-bis[2-ethanesulfonic acid], pH 6.9, 1 mM ethylene glycol-bis(β-aminoethyl ether)-N,N,N′,N′-tetraacetic acid, 1 mM magnesium chloride) and guanosine 5′-triphosphate (GTP) are also obtained from Cytoskeleton. [3H]paclitaxel, specific activity 14.7 Ci/mmol, is purchased from Moravek Biochemicals (Brea, Calif.). [^3H]vinblastine, specific activity 9.60 Ci/mmol and MicroSpin G-50 columns are obtained from Amersham Biosciences (Piscataway, N.J.). […] Other reagents are obtained from Sigma (St. Louis, Mo.).
Two variations of this procedure are done, one using MAP-rich tubulin and one using pure tubulin.
The procedure with pure tubulin is similar except for the following changes. […] The supernatant after centrifugation is dispensed to a 96-well plate already containing compounds. Each compound is tested in duplicate at six serial 3-fold dilutions starting at 24.3 μM. The plate reader is thermostated at 35°.

[5] = test system: tubulin heterodimer; assay: Competitive binding test, [3H]colchicine; design: species or system bovine; settings: [3H]colchicine 50 nM
Protocol: as §1
(§2) The binding of examples of this invention to highly purified tubulin is studied by competitive inhibition methods. […] To study possible competition at the taxane site, on the other hand, polymerized tubulin (microtubules) is used because paclitaxel binds preferentially to microtubules.
(§3) Highly purified tubulin is dissolved in PEM buffer without GTP and used at a final concentration of 1.0 to 1.3 mg/ml (10 to 13 μM). […] These solutions are incubated at 24° for 1 hr and then applied to MicroSpin G-50 columns which are centrifuged for 2 min at 3000 rpm in an Eppendorf 5415C microfuge. An aliquot of each column effluent (containing tubulin and bound radioligand) is mixed with scintillation fluid and counted in a liquid scintillation spectrometer. […] The ability of the competitor to inhibit the binding of the radioligand is expressed as a percentage of control binding in the absence of any competitor.

[6] = test system: MAP-rich tubulin; assay: Tubulin polymerization test with MAP-rich tubulin; type: biochemical, bovine; settings: 0.3 μM compound, 20 min, fold enhancement over control
Outline: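 Bovine brain MAP-rich tubulin (1.3 mg/mL) in PEM buffer pH 6.9 with 1 mM GTP, compounds at 0.3 μM final (0.3% DMSO), 24° for 60 min. Turbidity read at 340 nm each minute, baseline-subtracted; mean A340 at 20 min divided by solvent control gives fold enhancement.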

[7] = test system: tubulin heterodimer; assay: Competitive binding test, [3H]vinblastine; design: species or system bovine; settings: [3H]vinblastine 100 nM
Protocol: as §1, §2, §3

[8] = test system: microtubules; assay: Competitive binding test, [3H]paclitaxel; design: species or system bovine; settings: [3H]paclitaxel 2.1 μM, competitor 20 μM (5 μM for unlabeled paclitaxel)
Protocol: as §1, §2
For competition with [^3H]paclitaxel, highly purified tubulin is dissolved in PEM buffer containing 0.75 M glutamate and 25 μM dideoxy-GTP; final protein concentration is 0.25 to 0.35 mg/mL (2.5 to 3.5 μM). These conditions foster the rapid formation of short, stable microtubule polymers (Hamel, E., del Campo, A. A., and Lin, C. M. Stability of tubulin polymers formed with dideoxyguanosine nucleotides in the presence and absence of microtubule-associated proteins. J. Biol. Chem., 259: 2501-2508, 1984). This solution is incubated for 30 min at 37° to allow microtubules to form. Then [^3H]paclitaxel (final concentration of 2.1 μM, 1.2 Ci/mmol) and competitor (final concentration of 20 μM, except 5 μM for unlabeled paclitaxel) are added to aliquots of the polymerized tubulin solution and incubation at 37° is continued for another 30 min. […] The reactions are then centrifuged at top speed in an Eppendorf 5415C microfuge for 20 min at room temperature in order to pellet the microtubule protein. Triplicate aliquots of each supernatant are mixed with scintillation fluid and counted in a liquid scintillation spectrometer. From the amount of radioactivity in the supernatants and the measured total starting radioactivity, the amount of [^3H]paclitaxel bound to pelleted microtubule protein is calculated. The ability of each competitor to inhibit radioligand binding to pelleted protein is expressed as a percent of controls without any competitor.

SMILES: CNCCCOc1cc(F)c(-c2c(Cl)nc3ncnn3c2N[C@@H](C)C(F)(F)F)c(F)c1.O=C(O)/C=C/C(=O)O [Example 2b, 5-Chloro-6-{2,6-difluoro-4-[3-(methylamino)propoxy]phenyl}-N-[(1S)-2,2,2-trifluoro-1-methylethyl][1,2,4]triazolo[1,5-a]pyrimidin-7-amine Fumarate Salt]
- water absorbed [1]: 5.8%
- stability of dihydrate [1]: stable at room temperature and at 5-100% relative humidity

SMILES: CNCCCOc1cc(F)c(-c2c(Cl)nc3ncnn3c2N[C@@H](C)C(F)(F)F)c(F)c1.O=C(O)CCC(=O)O [Example 2c, 5-Chloro-6-{2,6-difluoro-4-[3-(methylamino)propoxy]phenyl}-N-[(1S)-2,2,2-trifluoro-1-methylethyl][1,2,4]triazolo[1,5-a]pyrimidin-7-amine Succinate Salt]
- IC50 ([2]; Succinate Salt): 38 nM
- T/C on day 0 ([3]; H157, 10 mg/kg IV): 1.07
- T/C on day 2 ([3]; H157, 10 mg/kg IV): 1.09
- T/C on day 5 ([3]; H157, 10 mg/kg IV): 1.00
- T/C on day 8 ([3]; H157, 10 mg/kg IV): 0.96
- T/C on day 12 ([3]; H157, 10 mg/kg IV): 0.49*
- T/C on day 15 ([3]; H157, 10 mg/kg IV): 0.38*
- T/C on day 0 ([3]; H157, 20 mg/kg IV): 0.98
- T/C on day 2 ([3]; H157, 20 mg/kg IV): 0.96
- T/C on day 5 ([3]; H157, 20 mg/kg IV): 0.50**
- T/C on day 8 ([3]; H157, 20 mg/kg IV): 0.51*
- T/C on day 12 ([3]; H157, 20 mg/kg IV): 0.44*
- T/C on day 15 ([3]; H157, 20 mg/kg IV): 0.24**
- tumor growth inhibition (activity call) ([3]; H157 NSCLC, 20 and 10 mg/kg intravenously on days 0 and 7): active
- water absorbed [1]: 5.8%
- stability of dihydrate [1]: stable at room temperature and at 5-100% relative humidity

- [3H]Colchicine binding, percent of control without competitor, Mean [5]: 121%
- [3H]Vinblastine binding, percent of control without competitor, Mean [7]: 12%
- [3H]Paclitaxel binding, percent of control without competitor, Mean [8]: 107%
SMILES: C[C@H](Nc1c(-c2c(F)cc(OCCCN3CCOCC3)cc2F)c(Cl)nc2ncnn12)C(F)(F)F.Cl [Example 11a, 5-Chloro-6-[2,6-difluoro-4-(3-morpholin-4-ylpropoxy)phenyl]-N-[(1S)-2,2,2-trifluoro-1-methylethyl][1,2,4]triazolo[1,5-a]pyrimidin-7-amine Hydrogen chloride]
- IC50 [2]: 51 nM
- absorbance increase, polymerization of pure tubulin ([4]; 2.7 μM): no effect
- absorbance increase, polymerization of pure tubulin ([4]; 8.1 μM): lower and less rapid increase
- A340 at 0 min ([4]; 24.3 μM): 0
- A340 at 5 min ([4]; 24.3 μM): 0.24
- A340 at 10 min ([4]; 24.3 μM): 0.24
- A340 at 15 min ([4]; 24.3 μM): 0.23
- A340 at 20 min ([4]; 24.3 μM): 0.22
- absorbance increase, polymerization of pure tubulin ([4]; 24.3 μM, first 5 min): rapid increase in absorbance
- A340 Compound/A340 Control [6]: 6.8
